# Results: article PMC11354909, “Preclinical Evaluation of Soluble Epoxide Hydrolase Inhibitor AMHDU against Neuropathic Pain” (International Journal of Molecular Sciences, 2024)
# Several values for one entry are separate records, joined by “and”; a condition that tells them apart may be missing. Equal entries are not always repeated. Entries after “also recorded” stand apart in the source; their conditions may differ. Where two headings read alike, the source gives them in different places.
# What was measured:
# [1] = test system: rat paw edema model; experiment: Freund's adjuvant rat paw edema model (anti-inflammatory activity); format: in vivo; settings: for effect on paw edema (reduction of exudative reaction): day 4
# [2] = target: soluble epoxide hydrolase (sEH); parameters: method as in PMID 24685540; settings: slow tight binding sEH inhibitor; cited from earlier work
# [3] = Acute oral toxicity (OECD test No. 423); settings: for Adrenal glands mass ratio to whole body weight / Brain mass ratio to whole body weight / Heart mass ratio to whole body weight / Kidneys mass ratio to whole body weight / Liver mass ratio to whole body weight / Lungs mass ratio to whole body weight / Ovaries mass ratio to whole body weight / Spleen mass ratio to whole body weight / Thymus mass ratio to whole body weight: 2 weeks after single intragastric dose, m ± SD
# Protocol: The acute toxicity of the substance by intragastric administration to female outbred rats was studied; the toxicity class, tolerated, toxic, lethal doses and character of toxic effect were determined according to the OECD test No. 423.
# Experiments were performed on sexually mature laboratory white mongrel female rats, divided into experimental and control groups. Experimental animals were administered the AMHDU substance diluted in 50% dimethyl sulfoxide solution in the recommended GOST 32644-2014 initial dose of 300 mg/kg (n = 6), as well as the maximum dose of 2000 mg/kg (n = 3) in the maximum allowable volume of 20 mL/kg once intra-gastrically. Control animals (n = 6) were injected with dimethyl sulfoxide diluted 1:1 with purified water at volumes identical to those of the experimental animals. The animals were monitored for 2 weeks, continuously for the first 4 h after injection. Routine necropsy of all surviving animals was performed on day 15.
# [4] = test system: pain threshold of inflamed paw, adjuvant inflammation; experiment: Randall–Selitto test in adjuvant inflammation (analgesic activity); format: in vivo, rat
# [5] = test system: STZ-rat neuropathic pain model; experiment: Tactile allodynia (von Frey) in streptozotocin diabetic polyneuropathy; format: in vivo
# Protocol: To evaluate the effect of the compound on the development of neuropathic pain, tactile hyperalgesia was evaluated in diabetic polyneuropathy in rats with 2-week streptozotocin-induced diabetes (35 mg/kg intraperitoneally). Only animals with developed allodynia and hyperalgesia were taken into the experiment, with 50% pain response indices not exceeding 6 g. Groups were formed randomly (n = 6). Tactile allodynia in rats was assessed by registering the pressure at which the animals jerked the right hind paw, avoiding exposure to stimuli of increasing degree. VonFrey hairs, which are 20 monofilaments of nylon filaments of different diameters attached to plastic handles, were applied to the right hind paw in turn from below through the mesh. The comparison drug gabapentin as well as the test compound AMHDU dissolved in 10% DMSO was administered intraperitoneally in 10 mg/kg dose 60 min. before the experiment. An equivalent volume of solvent was administered to control animals. The experiment was started with a monofilament labeled 4.31. If there was no response after 5 incidents of touching, the monofilament was successively changed to the next monofilament with higher strength. […] The 50% threshold of paw retraction during successive increases and decreases in stimulus strength was determined using the UP-AND-DOWN method.
# [6] = Pharmacokinetic study, intraperitoneal injection; format: in vivo, male Swiss–Webster mice
# Protocol: Animal experiments were approved by the Animal Use and Care Committee of University of California, Davis. Compounds were formulated in 5% EtOH, 95% PEG400 at a concentration of 0.25 mg/mL. […] […] For compound detection in plasma, 10 µL whole blood was sampled by tail nick and transferred immediately to 50 µL water containing 0.1% EDTA. Samples were extracted as previously described and stored at −20 °C until analysis. Samples were analysed by LC-MS/MS on an Agilent SL 1200 series LC system (Agilent, Palo Alto, CA, USA) connected to a 4000 Qtrap mass spectrometer (Applied Biosystems Instrument Corporation, Foster City, CA, USA) with Turbo V ion source. Liquid chromatography was performed on a Kinetex R© C18 column (100 × 2.1 mm, 1.7 μm). The mass spectrometer was operated in positive modes with primary MRM scan of 499.377/143.153 and secondary scans of 499.377/149.190 and 499.377/166.204. Peaks were integrated using Analyst software v 1.6.3 (Ab Sciex, Washington, DC, USA) and quantified against a standard curve as previously described.
# [7] = individual animals No. 1-4, i.p., table dose 1 mg/kg, 1 mg/kg
compound,measurement,setting,value
"C[C@@H]1C[C@H]2[C@@H]3CCC4=CC(=O)C=C[C@]4(C)[C@@]3(F)[C@@H](O)C[C@]2(C)[C@@]1(O)C(=O)CO [dexamethasone, reference compound]",effect on paw edema (reduction of exudative reaction),[1]; dexamethasone 5 mg/kg i.p. 2 times a day for 4 days,65%
"O=C(NCCCCCCNC(=O)NCC12CC3CC(CC(C3)C1)C2)NCC12CC3CC(CC(C3)C1)C2 [AMHDU, 1,1′-(hexane-1,6-diyl)bis(3-((adamantan-1-yl)methyl)urea)]",effect on the volume of the affected limb (paw edema),"[1]; 5 mg/kg i.p. 2 times a day for 4 days, day 4 after adjuvant",no significant effect
same,reduction of the primary exudative reaction (paw edema),"[1]; 30 mg/kg i.p. 2 times a day for 4 days, day 4 after adjuvant",no statistically significant reduction
same,anti-inflammatory effect (overall conclusion),[1]; 5 and 30 mg/kg i.p.,lacks anti-inflammatory activity; also recorded: negligible anti-inflammatory effect
same,IC50,[2],0.5 nM
same,Ki,[2],3.1 nM
same,"Adrenal glands mass ratio, change compared to control group","[3]; 300 mg/kg, 2 weeks",–8.5%
same,"Brain mass ratio, change compared to control group","[3]; 300 mg/kg, 2 weeks",–0.1%
same,"Heart mass ratio, change compared to control group","[3]; 300 mg/kg, 2 weeks",–6.4%
same,"Kidneys mass ratio, change compared to control group","[3]; 300 mg/kg, 2 weeks",–3.1%
same,"Liver mass ratio, change compared to control group","[3]; 300 mg/kg, 2 weeks",2.1%
same,"Lungs mass ratio, change compared to control group","[3]; 300 mg/kg, 2 weeks",–3.5%
same,"Ovaries mass ratio, change compared to control group","[3]; 300 mg/kg, 2 weeks",–1.0%
same,"Spleen mass ratio, change compared to control group","[3]; 300 mg/kg, 2 weeks",0.5%
same,"Thymus mass ratio, change compared to control group","[3]; 300 mg/kg, 2 weeks",–4.1%
same,Adrenal glands mass ratio to whole body weight,[3]; 300 mg/kg,0.04 ± 0.004%
same,Brain mass ratio to whole body weight,[3]; 300 mg/kg,0.72 ± 0.02%
same,Heart mass ratio to whole body weight,[3]; 300 mg/kg,0.33 ± 0.01%
same,Kidneys mass ratio to whole body weight,[3]; 300 mg/kg,0.62 ± 0.02%
same,Liver mass ratio to whole body weight,[3]; 300 mg/kg,3.03 ± 0.12%
same,Lungs mass ratio to whole body weight,[3]; 300 mg/kg,0.60 ± 0.04%
same,Ovaries mass ratio to whole body weight,[3]; 300 mg/kg,0.05 ± 0.003%
same,Spleen mass ratio to whole body weight,[3]; 300 mg/kg,0.48 ± 0.01%
same,Thymus mass ratio to whole body weight,[3]; 300 mg/kg,0.17 ± 0.03%
same,"Adrenal glands mass ratio, change compared to control group","[3]; 2000 mg/kg, 2 weeks",–14.4%
same,"Brain mass ratio, change compared to control group","[3]; 2000 mg/kg, 2 weeks",–0.3%
same,"Heart mass ratio, change compared to control group","[3]; 2000 mg/kg, 2 weeks",–10.4%
same,"Kidneys mass ratio, change compared to control group","[3]; 2000 mg/kg, 2 weeks",0.4%
same,"Liver mass ratio, change compared to control group","[3]; 2000 mg/kg, 2 weeks",–6.4%
same,"Lungs mass ratio, change compared to control group","[3]; 2000 mg/kg, 2 weeks",–10.7%
same,"Ovaries mass ratio, change compared to control group","[3]; 2000 mg/kg, 2 weeks",18.3%
same,"Spleen mass ratio, change compared to control group","[3]; 2000 mg/kg, 2 weeks",–9.9%
same,"Thymus mass ratio, change compared to control group","[3]; 2000 mg/kg, 2 weeks",–11.0%
same,Adrenal glands mass ratio to whole body weight,[3]; 2000 mg/kg,0.03 ± 0.003%
same,Brain mass ratio to whole body weight,[3]; 2000 mg/kg,0.72 ± 0.02%
same,Heart mass ratio to whole body weight,[3]; 2000 mg/kg,0.32 ± 0.01%
same,Kidneys mass ratio to whole body weight,[3]; 2000 mg/kg,0.64 ± 0.03%
same,Liver mass ratio to whole body weight,[3]; 2000 mg/kg,2.77 ± 0.41%
same,Lungs mass ratio to whole body weight,[3]; 2000 mg/kg,0.56 ± 0.03%
same,Ovaries mass ratio to whole body weight,[3]; 2000 mg/kg,0.06 ± 0.01%
same,Spleen mass ratio to whole body weight,[3]; 2000 mg/kg,0.43 ± 0.02%
same,Thymus mass ratio to whole body weight,[3]; 2000 mg/kg,0.16 ± 0.01%
same,necropsy: architectonics of internal organs location,[3]; day 15 after intragastric 300 and 2000 mg/kg,no pathological changes
same,toxicity class according to the GHS classification,"[3]; female, outbred white mongrel, rat, in vivo, 2 weeks",class 5
same,LD50 at 2 weeks,"[3]; female, outbred white mongrel, rat, in vivo, po, LD50 (acute oral toxicity), intragastric, female rats",> 2000 mg/kg
same,LD50 (acute oral toxicity),"[3]; intragastric, female rats",2000 to 5000 mg/kg
same,death in early and distant periods of observation,"[3]; single intragastric limit dose 2000 mg/kg, 2 weeks observation",does not contribute to death
same,effect on pain threshold,[4]; 5 mg/kg i.p. 2 times a day for 4 days,no significant suppression of the pain threshold
same,increase of paw-pulling threshold,[4]; 30 mg/kg i.p. 2 times a day for 4 days,38%
same,analgesic activity compared with reference drugs,"[4]; AMHDU 30 mg/kg i.p. vs celecoxib 10 mg/kg, dexamethasone 5 mg/kg",superior to both dexamethasone and celecoxib
same,analgesic activity compared with gabapentin,[5]; 10 mg/kg i.p. both drugs,comparable to standard of care gabapentin
same,pain threshold relative to the control group,"[5]; 10 mg/kg i.p., 60 min before the experiment",1.5 times
same,compound left in the bloodstream,"[6]; 4 h after injection, i.p. 1.25 mg/kg",none is left in the bloodstream
same,AUC,"[6]; Swiss-Webster, mouse, whole blood, ip, i.p. 1.25 mg/kg, male mice",26 ng·h/mL
same,half-life,"[6]; Swiss-Webster, mouse, whole blood, ip, i.p. 1.25 mg/kg, male mice, read-out: half-life (Thalf)",~0.167 h
same,AUClast,[6]; [7],24 ng·h/mL and 35 ng·h/mL and 31 ng·h/mL and 16 ng·h/mL
same,Cmax,[6]; [7],24.32 ng/mL and 53.00 ng/mL and 31.93 ng/mL and 30.86 ng/mL
same,MRT,[6]; [7],1.51 h and 1.04 h and 1.08 h and 0.55 h
same,Thalf,[6]; [7],0.18 h and 0.16 h and 0.13 h and 0.15 h
same,Tmax,[6]; [7],2.0 h and 0.5 h
same,Thalf,"[6]; m ± SE of 4 mice, i.p.",0.16 ± 0.02 h
same,AUC(0-t),"[6]; male, Swiss-Webster, mouse, whole blood, ip, 1.25 mg/kg, m ± SE of 4 mice",26.4 ± 8.6 ng·h/mL
same,Cmax,"[6]; male, Swiss-Webster, mouse, whole blood, ip, 1.25 mg/kg, m ± SE of 4 mice, i.p., read-out: Cmax",35 ± 12.4 ng/mL
same,MRT,"[6]; male, Swiss-Webster, mouse, whole blood, ip, 1.25 mg/kg, m ± SE of 4 mice, i.p., read-out: MRT",~1 h
same,Tmax,"[6]; male, Swiss-Webster, mouse, whole blood, ip, 1.25 mg/kg, mean of 4 mice, i.p., read-out: Tmax",1 h
"Cc1ccc(-c2cc(C(F)(F)F)nn2-c2ccc(S(N)(=O)=O)cc2)cc1 [celecoxib, reference compound]",effect on paw edema (reduction of exudative reaction),[1]; celecoxib 10 mg/kg i.p. 2 times a day for 4 days,51%
